Test results taken from the supplement of paper PMC10331698.
± gives the standard deviation of the averaged measurements.

Assays:
Experiment in all cases: level (log10 ratio to DMSO vehicle control); higher = higher biomarker level / cell amount than vehicle control
[1] = compound: C=CC(=O)OCC(F)(F)C(F)(F)C(F)(F)C(F)(F)COC(=O)C=C [1H,1H,6H,6H-Perfluorohexane-1,6-diol diacrylate]; conditions: 6700 nM; in DMSO
Procedure: (§1)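 BioMAP Diversity Plus panel of 12 human primary cell co-culture systems (3C, 4H, LPS, SAg, BT, BF4T, BE3C, CASM3C, HDF3CGF, KF3CT, MyoF, Mphg). Compounds were added 1 h before stimulation and left for 24 h (MyoF 48 h; BT 72 h for soluble read-outs or 6 d for IgG). Biomarkers were read by ELISA, cytotoxicity by SRB, PBMC viability and proliferation by Alamar Blue. Each well value was divided by the mean of 8 DMSO control wells on the same plate and log10 transformed; duplicate blinded samples were tested at 4 concentrations.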

[2] = compound: FC(F)(I)C(F)(F)C(F)(F)C(F)(F)C(F)(F)C(F)(F)I [1,6-Diiodoperfluorohexane]; conditions: 6700 nM; in DMSO
Procedure: as §1

[3] = compound: O=C(CC(=O)C(F)(F)C(F)(F)C(F)(F)F)c1cccs1 [(Perfluorobutyryl)-2-thenoylmethane]; conditions: in DMSO
Procedure: as §1

[4] = compound: O=C(Cl)C(F)(F)C(F)(F)C(F)(F)C(=O)Cl [Hexafluoroglutaryl chloride]; conditions: in DMSO
Procedure: as §1

[5] = compound: O=C(O)C(F)(F)C(F)(F)C(=O)O [Tetrafluorosuccinic acid]; conditions: in DMSO
Procedure: as §1

[6] = compound: O=C(O)C(F)(F)C(F)(F)C(F)(F)C(F)(F)C(F)(F)C(F)(F)C(F)(F)F [Perfluorooctanoic acid]; conditions: in DMSO
Procedure: as §1

[7] = compound: OCC(F)(F)C(F)(F)C(F)(F)C(F)(F)C(F)(F)C(F)(F)C(F)(F)C(F)(F)C(F)(F)C(F)(F)C(F)(F)F [11:1 Fluorotelomer alcohol]; conditions: in DMSO
Procedure: as §1

[8] = compound: OCCCC(F)(F)C(F)(F)C(F)(F)C(F)(F)C(F)(F)C(F)(F)C(F)(F)C(F)(F)F [3-(Perfluorooctyl)propanol]; conditions: 6700 nM; in DMSO
Procedure: as §1

[9] = compound: OCCCCC(F)(F)C(F)(F)C(F)(F)C(F)(F)F [4:4 Fluorotelomer alcohol]; conditions: in DMSO
Procedure: as §1

Test System | level (log10) [1] | level (log10) [2] | level (log10) ([3]; 6700 nM) | level (log10) ([3]; 20000 nM) | level (log10) ([4]; 6700 nM) | level (log10) ([4]; 20000 nM) | level (log10) ([4]; 60000 nM) | level (log10) ([5]; 6700 nM) | level (log10) ([5]; 20000 nM) | level (log10) ([5]; 60000 nM) | level (log10) ([6]; 6700 nM) | level (log10) ([6]; 20000 nM) | level (log10) ([6]; 60000 nM) | level (log10) ([7]; 1100 nM) | level (log10) ([7]; 3300 nM) | level (log10) ([7]; 10000 nM) | level (log10) [8] | level (log10) ([9]; 6700 nM) | level (log10) ([9]; 20000 nM) | level (log10) ([9]; 60000 nM)
KF3CT:CCL2/MCP-1 | -0.101 ± 0.045 | -0.251 | 0.0205 ± 0.013 | 0.006 ± 0.0057 | -0.021 ± 0.016 | -0.007 ± 0.017 | 0.0075 ± 0.016 | -0.05 ± 0.0085 | -0.042 ± 0.021 | -0.0065 ± 0.07 | 0.005 ± 0.018 | 0.0145 ± 0.029 | -0.0785 ± 0.011 | 0.0265 ± 0.013 | 0.0205 ± 0.00071 | 0.0305 ± 0.00071 | -0.077 ± 0.025 | -0.0035 ± 0.057 | 0.004 ± 0.044 | 0.0225 ± 0.042
lMphg:sIL-10 | -0.067 ± 0.014 | -0.219 | 0.0065 ± 0.071 | -0.429 ± 0.093 | -0.049 ± 0.045 | -0.102 ± 0.0035 | 0.0335 ± 0.076 | -0.0085 ± 0.016 | -0.0265 ± 0.097 | 0.0415 ± 0.11 | -0.0525 ± 0.032 | -0.0035 ± 0.11 | -0.219 ± 0.051 | -0.0255 ± 0.069 | -0.0875 ± 0.066 | -0.216 ± 0.082 | -0.027 ± 0.013 | -0.096 ± 0.11 | -0.032 ± 0.0028 | -0.014 ± 0.041
HDF3CGF:SRB | -0.291 ± 0.028 | -0.644 | 0.0935 ± 0.005 | 0.0145 ± 0.005 | -0.004 ± 0.0085 | 0.0295 ± 0.0035 | 0.007 ± 0.014 | -0.0125 ± 0.011 | -0.013 ± 0.03 | 0.007 ± 0.044 | -0.0075 ± 0.026 | 0.0325 ± 0.043 | -0.0245 ± 0.056 | -0.0055 ± 0.011 | -0.0055 ± 0.016 | 0.0315 ± 0.036 | -0.397 ± 0.28 | 0.0015 ± 0.036 | -0.0165 ± 0.0064 | 0.006 ± 0.018
CASM3C:CXCL8/IL-8 | -0.015 ± 0.0028 | -0.02 | -0.0045 ± 0.0021 | -0.043 ± 0.0057 | 0.0095 ± 0.021 | 0.006 ± 0.016 | 0.0005 ± 0.052 | -0.001 ± 0.0042 | -0.0145 ± 0.018 | -0.002 ± 0.016 | 0.014 ± 0.0085 | 0.009 ± 0.0042 | 0.052 ± 0.014 | -0.0025 ± 0.0035 | -0.006 | -0.007 ± 0.064 | -0.008 ± 0.0099 | 0.0125 ± 0.0035 | 0.0095 ± 0.032 | 0.026 ± 0.045
lMphg:SRB-Mphg | -0.0115 ± 0.084 | -0.023 | 0.005 ± 0.011 | -0.054 ± 0.0028 | 0.007 ± 0.0057 | 0.0065 ± 0.005 | 0.0125 ± 0.011 | -0.0035 ± 0.015 | -0.0075 ± 0.013 | -0.013 ± 0.016 | -0.0085 ± 0.013 | 0.0005 ± 0.005 | -0.002 ± 0.03 | -0.039 ± 0.0014 | -0.105 ± 0.0085 | -0.205 ± 0.0085 | -0.049 ± 0.072 | 0.008 ± 0.016 | -0.009 ± 0.0057 | -0.01 ± 0.0085
KF3CT:CD54/ICAM-1 | -0.076 ± 0.0028 | -0.038 | -0.0335 ± 0.00071 | -0.0115 ± 0.023 | -0.013 ± 0.0014 | -0.002 ± 0.0057 | -0.002 ± 0.0028 | 0.011 ± 0.0085 | 0.003 | 0.025 ± 0.0042 | -0.015 ± 0.011 | -0.011 ± 0.0028 | -0.0095 ± 0.018 | -0.014 ± 0.0071 | -0.0295 ± 0.0021 | -0.0045 ± 0.012 | -0.062 ± 0.024 | 0.0095 ± 0.019 | -0.0025 ± 0.018 | 0.005 ± 0.024
BE3C:uPA | -0.02 ± 0.014 | -0.002 | 0.0235 ± 0.00071 | 0.0095 ± 0.022 | -0.0015 ± 0.0064 | -0.004 ± 0.0028 | -0.0035 ± 0.0064 | -0.007 ± 0.0057 | -0.016 ± 0.021 | -0.003 ± 0.013 | -0.014 ± 0.013 | -0.0065 ± 0.0021 | 0.0185 ± 0.015 | -0.0155 ± 0.013 | -0.0405 ± 0.0078 | -0.0175 ± 0.0035 | -0.005 ± 0.0085 | 0.0035 ± 0.011 | -0.0115 ± 0.00071 | 0.0015 ± 0.0021
MyoF:TIMP-1 | -0.0015 ± 0.016 | -0.047 | -0.042 ± 0.047 | -0.0405 ± 0.015 | -0.04 ± 0.057 | -0.024 ± 0.027 | 0.0175 ± 0.04 | -0.0045 ± 0.022 | -0.0215 ± 0.04 | -0.026 ± 0.069 | -0.0245 ± 0.005 | 0.0185 ± 0.0078 | 0.089 ± 0.013 | 0.0095 ± 0.05 | 0.015 ± 0.048 | 0.011 ± 0.02 | -0.0115 ± 0.046 | 0.021 ± 0.062 | 0.0235 ± 0.067 | 0.0315 ± 0.087
CASM3C:Proliferation | -0.0005 ± 0.037 | -0.119 | -0.0865 ± 0.013 | -0.245 ± 0.018 | 0.004 ± 0.0042 | -0.012 ± 0.027 | -0.031 ± 0.03 | 0.001 ± 0.0057 | -0.053 ± 0.016 | -0.0085 ± 0.06 | -0.023 ± 0.051 | -0.0165 ± 0.032 | 0.0105 ± 0.0064 | 0.0145 ± 0.0078 | -0.0185 ± 0.005 | 0.0565 ± 0.0092 | -0.026 ± 0.033 | -0.01 ± 0.0099 | -0.0345 ± 0.005 | -0.0075 ± 0.057
MyoF:Decorin | -0.083 ± 0.011 | 0.021 | 0.0045 ± 0.011 | 0.0285 ± 0.022 | -0.014 ± 0.016 | -0.0095 ± 0.026 | -0.006 ± 0.0099 | -0.0055 ± 0.0021 | -0.006 ± 0.0057 | 0.014 ± 0.027 | 0.007 ± 0.018 | 0.02 ± 0.025 | 0.033 ± 0.055 | 0.0065 ± 0.028 | 0.013 ± 0.021 | 0.0255 ± 0.0021 | 0.0395 ± 0.033 | 0.0115 ± 0.0035 | -0.0015 ± 0.028 | 0.033 ± 0.057
HDF3CGF:PAI-I | -0.074 ± 0.016 | -0.662 | 0.0475 ± 0.052 | -0.0845 ± 0.046 | -0.05 ± 0.073 | -0.0215 ± 0.083 | -0.0155 ± 0.043 | -0.0295 ± 0.0078 | -0.009 ± 0.0014 | 0.003 ± 0.037 | 0.02 ± 0.0071 | 0.0425 ± 0.019 | 0.088 ± 0.065 | 0.037 ± 0.0014 | 0.0515 ± 0.012 | 0.029 ± 0.075 | -0.391 ± 0.07 | -0.0015 ± 0.012 | 0.0075 ± 0.03 | 0.0075 ± 0.054
CASM3C:M-CSF | -0.105 ± 0.016 | -0.042 | 0.014 | 0.012 ± 0.04 | -0.001 ± 0.0028 | 0.0095 ± 0.057 | 0.03 ± 0.051 | -0.008 ± 0.035 | -0.015 ± 0.016 | 0.0095 ± 0.033 | 0.0005 ± 0.012 | -0.004 ± 0.021 | 0.0145 ± 0.022 | -0.026 ± 0.044 | 0.006 ± 0.031 | 0.017 ± 0.0099 | -0.0325 ± 0.025 | 0.0085 ± 0.011 | -0.005 ± 0.024 | 0.021 ± 0.047
MyoF:Collagen IV | -0.0715 ± 0.015 | 0.063 | 0.018 ± 0.1 | 0.534 ± 0.07 | -0.021 ± 0.099 | -0.0295 ± 0.11 | -0.0075 ± 0.069 | 0.008 | 0.003 ± 0.0099 | 0.0115 ± 0.015 | 0.011 ± 0.014 | 0.051 ± 0.033 | 0.214 ± 0.03 | -0.0365 ± 0.05 | -0.0255 ± 0.028 | -0.01 ± 0.028 | -0.0385 ± 0.029 | 0.002 ± 0.03 | -0.009 ± 0.044 | 0.0145 ± 0.063
